These results are taken from patent US6514946B1, “Macrolide antibiotics and treatment and prophylaxis of pasteurellosis using the same” (Zaidan Hojin Biseibutsu Kagaku Kenkyu Kai, priority 1999, dated 2003).

Values after ≈ are worked out from the molar mass of the structure shown.

One test has as its system S. aureus FDA209P. The experiment in a line: Minimum inhibition concentration (MIC), agar double dilution method. The format is cell-based, Staphylococcus aureus. To be noted: Mueller hinton agar. The procedure:
(§1) Test 1; Minimum Inhibition Concentration (MIC)
(§2) MIC was measured, based on the standard method of Japan Society of Chemotherapy, on a BHI agar medium (Brain heart-infusion agar, made by Difco Laboratories Inc.(USA)) with respect to Pasteurella and on a Mueller hinton agar medium (Mueller hinton agar, made by Difco, Laboratories Inc.(USA)) with respect to the other test bacteria in both cases according to the double dilution method.

For test [1], the system named is S. aureus Smith (virulent strain). The experiment in a line: microbe, parasite or virus in culture. The test is classed as cell-based, Staphylococcus aureus. To be noted: S. aureus Smith (virulent strain); Mueller hinton agar. On the procedure:
as §1, §2

Test [2] has as its system Bacillus subtilis NRRL B-558. Put plainly: Minimum inhibition concentration (MIC), agar double dilution method. The test is classed as cell-based. The note with it: Bacillus subtilis NRRL B-558; Mueller hinton agar. The procedure:
as §1, §2

Test [3] concerns Enterobacter aerogenes ATCC13048. The test is described as above. The test is classed as cell-based. To be noted: Mueller hinton agar. The procedure: as §1, §2
Another test deals with Escherichia coli NIHJ. The test is described as above. The test is classed as cell-based. To be noted: Mueller hinton agar. On the procedure:
as §1, §2

In test [4] the test system is Klebsiella pneumoniae PCI602. The description is as above. The note with it: Mueller hinton agar. The format is cell-based. The procedure: as §1, §2
For test [5], the system named is Micrococcus luteus PCI1001. Described as above. The format is cell-based. The note with it: Mueller hinton agar. On the procedure: as §1, §2
The test system of test [6] is Pasteurella haemolytica BBPO101 N791. The test is described as above. The format is cell-based. The note with it: Pasteurella haemolytica BBPO101 N791, strain from cattle; BHI agar. On the procedure:
as §1, §2

The next test concerns Proteus vulgaris OX19. Described as above. To be noted: Mueller hinton agar. The test is classed as cell-based. The procedure:
as §1, §2

Test [7] concerns Salmonella enteritidis 1891. The description is as above. The test is classed as cell-based. The note with it: Mueller hinton agar. On the procedure:
as §1, §2

Another test relates to Serratia marcescens. The test is described as above. The format is cell-based. The note with it: Mueller hinton agar. On the procedure: as §1, §2
Test [8] concerns Shigella dysenteriae JS11910. The test is described as above. The test is classed as cell-based. To be noted: Shigella dysenteriae JS11910; Mueller hinton agar. The procedure: as §1, §2
The subject of test [9] is Staphylococcus aureus 193. Described as above. To be noted: Mueller hinton agar. The format is cell-based. On the procedure: as §1, §2
A further test concerns E. coli K-12 R-5. Described as above. To be noted: Mueller hinton agar. The test is classed as cell-based, Escherichia coli. The procedure: as §1, §2
Test [10] deals with Past haemolytica BAPO103 S801. The description is as above. The format is cell-based, Pasteurella haemolytica. To be noted: Past haemolytica BAPO103 S801, strain from poultry; BHI agar. On the procedure:
as §1, §2

Test [11] concerns Past haemolytica BBPO102 N811. The description is as above. The test is classed as cell-based, Pasteurella haemolytica. To be noted: Past haemolytica BBPO102 N811, strain from cattle; BHI agar. On the procedure: as §1, §2
Test [12] deals with Past. multocida BOPO305 M-17. The test is described as above. The format is cell-based, Pasteurella multocida. To be noted: Past. multocida BOPO305 M-17, strain from a sheep; BHI agar. The procedure:
as §1, §2

Test [13] has as its system Past. multocida BSPO302 No. 6. Described as above. To be noted: Past. multocida BSPO302 No. 6, strain from a pig; BHI agar. The test is classed as cell-based, Pasteurella multocida. The procedure: as §1, §2

Turning to `CC[C@H]1OC(=O)C[C@@H](O)[C@H](C)[C@@H](O[C@@H]2O[C@H](C)C(O)C(N(C)C)C2O)[C@@H](CCN(C)C)C[C@@H](C)C(=O)/C=C/C(C)=C/[C@@H]1CN(C)C` (some centres unmarked) [Compound C-1], the MIC came out at 50 µg/mL (≈ 76.5 µM) against S. aureus FDA209P; 100 µg/mL (≈ 153 µM) in test [1]; 100 µg/mL (≈ 153 µM) in test [2]; 50 µg/mL (≈ 76.5 µM) in [3]; 12.5 µg/mL (≈ 19.1 µM) in the test with Escherichia coli NIHJ; 25 µg/mL (≈ 38.2 µM) in test [4]. Also, the MIC in test [5] was 3.13 µg/mL (≈ 4.79 µM); in test [6], 6.25 µg/mL (≈ 9.56 µM); in the test on Proteus vulgaris OX19, 100 µg/mL (≈ 153 µM); in test [7], 6.25 µg/mL (≈ 9.56 µM); against Serratia marcescens it was more than 100 µg/mL; in test [8], 50 µg/mL (≈ 76.5 µM). For the same compound, the MIC in [9] is 50 µg/mL (≈ 76.5 µM); in the test with E. coli K-12 R-5, more than 100 µg/mL; in test [10], 50 µg/mL (≈ 76.5 µM); in [11], 6.25 µg/mL (≈ 9.56 µM); in test [12], 6.25 µg/mL (≈ 9.56 µM); in [13], 12.5 µg/mL (≈ 19.1 µM).
Turning to `CCCCCCN(CCCCCC)CC[C@H]1C[C@@H](C)C(=O)/C=C/C(C)=C/[C@H](CN(CCCCCC)CCCCCC)[C@@H](CC)OC(=O)C[C@@H](O)[C@H](C)[C@H]1O[C@@H]1O[C@H](C)C(O)C(N(C)C)C1O` (some centres unmarked) [Compound C-2], the MIC was 6.25 µg/mL (≈ 6.69 µM) with S. aureus FDA209P; 6.25 µg/mL (≈ 6.69 µM) in test [1]; 12.5 µg/mL (≈ 13.4 µM) in [2]; more than 100 µg/mL in test [3]; more than 100 µg/mL against Escherichia coli NIHJ; more than 100 µg/mL in test [4]. Also, the MIC in test [5] is 6.25 µg/mL (≈ 6.69 µM); in test [6], 12.5 µg/mL (≈ 13.4 µM); with Proteus vulgaris OX19 it was more than 100 µg/mL; in test [7], more than 100 µg/mL; with Serratia marcescens it was more than 100 µg/mL; in test [8], more than 100 µg/mL. Also, the MIC in test [9] was 3.13 µg/mL (≈ 3.35 µM); with E. coli K-12 R-5 it was more than 100 µg/mL; in [10] it was 100 µg/mL (≈ 107 µM); in test [11], 12.5 µg/mL (≈ 13.4 µM); in [12], 50 µg/mL (≈ 53.5 µM); in [13], 50 µg/mL (≈ 53.5 µM).
In the case of `CC[C@H]1OC(=O)C[C@@H](O)[C@H](C)[C@@H](O[C@@H]2O[C@H](C)C(O)C(N(C)C)C2O)[C@@H](CCN(C)Cc2ccccc2)C[C@@H](C)C(=O)/C=C/C(C)=C/[C@@H]1CN(C)Cc1ccccc1` (some centres unmarked) [Compound C-4], the MIC stood at 0.39 µg/mL (≈ 0.484 µM) against S. aureus FDA209P; 6.25 µg/mL (≈ 7.75 µM) in [1]; 12.5 µg/mL (≈ 15.5 µM) in [3]; 6.25 µg/mL (≈ 7.75 µM) in the test on Escherichia coli NIHJ; 6.25 µg/mL (≈ 7.75 µM) in test [4]; 0.20 µg/mL (≈ 0.248 µM) in [5]. Moreover, the MIC was determined as 0.39 µg/mL (≈ 0.484 µM) in test [6]; 12.5 µg/mL (≈ 15.5 µM) with Proteus vulgaris OX19; 1.56 µg/mL (≈ 1.94 µM) in test [7]; 100 µg/mL (≈ 124 µM) against Serratia marcescens; 3.13 µg/mL (≈ 3.88 µM) in [8]; 0.39 µg/mL (≈ 0.484 µM) in test [9]. For the same compound, the MIC in the test with E. coli K-12 R-5 is more than 100 µg/mL; in test [10], 6.25 µg/mL (≈ 7.75 µM); in test [11], 0.39 µg/mL (≈ 0.484 µM); in test [12], 0.76 µg/mL (≈ 0.943 µM); in [13], 1.56 µg/mL (≈ 1.94 µM).
For `CC[C@H]1OC(=O)C[C@@H](O)[C@H](C)[C@@H](O[C@@H]2O[C@H](C)C(O)C(N(C)C)C2O)[C@@H](CCN(Cc2ccccc2)Cc2ccccc2)C[C@@H](C)C(=O)/C=C/C(C)=C/[C@@H]1CN(Cc1ccccc1)Cc1ccccc1` (some centres unmarked) [Compound C-5], the MIC against S. aureus FDA209P is 12.5 µg/mL (≈ 13 µM); in test [1], 50 µg/mL (≈ 52.2 µM); in test [2], 50 µg/mL (≈ 52.2 µM); in [3], more than 100 µg/mL; in the test on Escherichia coli NIHJ, more than 100 µg/mL; in test [4], more than 100 µg/mL. In addition, the MIC in test [5] was 6.25 µg/mL (≈ 6.52 µM); in test [6] it was 50 µg/mL (≈ 52.2 µM); against Proteus vulgaris OX19, more than 100 µg/mL; in test [7] it was more than 100 µg/mL; in the test with Serratia marcescens, 100 µg/mL (≈ 104 µM); in test [8] it was more than 100 µg/mL. Also, the MIC in test [9] was 12.5 µg/mL (≈ 13 µM); against E. coli K-12 R-5, more than 100 µg/mL; in test [10], more than 100 µg/mL; in test [11], 50 µg/mL (≈ 52.2 µM); in test [12], more than 100 µg/mL; in test [13], more than 100 µg/mL.
As for `CC[C@H]1OC(=O)C[C@@H](O)[C@H](C)[C@@H](O[C@@H]2O[C@H](C)C(O)C(N(C)C)C2O)[C@@H](CCN2CC(C)CC(C)C2)C[C@@H](C)C(=O)/C=C/C(C)=C/[C@@H]1CN1CC(C)CC(C)C1` (some centres unmarked) [DMP-MT], the MIC with S. aureus FDA209P was 1.56 µg/mL (≈ 1.97 µM); in [1] it was 6.25 µg/mL (≈ 7.91 µM); in [3] it was 25 µg/mL (≈ 31.6 µM); against Escherichia coli NIHJ it was 6.25 µg/mL (≈ 7.91 µM); in test [4], 6.25 µg/mL (≈ 7.91 µM); in test [5], 1.56 µg/mL (≈ 1.97 µM). The MIC in test [6] stood at 0.39 µg/mL (≈ 0.494 µM); in the test with Proteus vulgaris OX19 it was 25 µg/mL (≈ 31.6 µM); in test [7], 3.13 µg/mL (≈ 3.96 µM); in the test on Serratia marcescens it was 100 µg/mL (≈ 127 µM); in [8], 12.5 µg/mL (≈ 15.8 µM); in test [9], 3.13 µg/mL (≈ 3.96 µM). The MIC with E. coli K-12 R-5 is more than 100 µg/mL; in [10] it was 1.56 µg/mL (≈ 1.97 µM); in test [11], 0.39 µg/mL (≈ 0.494 µM); in test [12], 0.39 µg/mL (≈ 0.494 µM); in [13], 0.78 µg/mL (≈ 0.987 µM).
`CC[C@H]1OC(=O)C[C@@H](O)[C@H](C)[C@@H](O[C@@H]2O[C@H](C)C(O)C(N(C)C)C2O)[C@@H](CCN2CCC(C)CC2)C[C@@H](C)C(=O)/C=C/C(C)=C/[C@@H]1CN1CCC(C)CC1` (some centres unmarked) [MP-MT]: the MIC is 1.56 µg/mL (≈ 2.05 µM) in the test on S. aureus FDA209P; 25 µg/mL (≈ 32.8 µM) in test [2]; 12.5 µg/mL (≈ 16.4 µM) in test [3]; 3.13 µg/mL (≈ 4.11 µM) in test [4]; 0.78 µg/mL (≈ 1.02 µM) in test [5]; 0.39 µg/mL (≈ 0.512 µM) in test [6]. Moreover, the MIC against Proteus vulgaris OX19 was 12.5 µg/mL (≈ 16.4 µM); in test [7], 3.13 µg/mL (≈ 4.11 µM); against Serratia marcescens it was 50 µg/mL (≈ 65.6 µM); in test [8] it was 6.25 µg/mL (≈ 8.2 µM); in test [9] it was 1.56 µg/mL (≈ 2.05 µM); against E. coli K-12 R-5, more than 100 µg/mL. The MIC was 3.13 µg/mL (≈ 4.11 µM) in test [10], 0.39 µg/mL (≈ 0.512 µM) in test [11], 0.39 µg/mL (≈ 0.512 µM) in test [12] and 0.39 µg/mL (≈ 0.512 µM) in test [13].
